Patent publication US20160183526A1, “FUNGICIDAL COMPOSITIONS” (Dow AgroSciences LLC, priority 2014, published 2016)

Key:
Format in all cases: physicochemical
[1] = Approximate relative solubility of active ingredients in organic solvents at ambient temperature
[2] = Solubility of Compound A and prothioconazole in benzyl acetate/AMD810/cyclohexanone blends at 10° C.; details: one week
Procedure: A total of 20 g of each solvent blend was prepared per sample. For example, one of the blends (Blend 4) was prepared by combining cyclohexanone 0.2 (4 g), benzyl acetate 0.2 (4 g) and AMD810 0.6 (12 g). To Blend 4 were added amounts of Compound A and prothioconazole technical active ingredients to achieve saturation concentrations of each. The samples were then stored at 10° C. for one week and then were analysed for soluble active ingredient content.

[3] = Accelerated storage stability of Compound A in liquid compositions, 2 weeks at 54° C. (HPLC); details: 2 weeks 54° C.
Procedure: The test compositions were prepared in a manner similar to that described in Example 1 using one or more of Compound A, prothioconazole, pyraclostrobin, benzyl acetate, and AMD 810, and a third solvent chosen from cyclohexanone, acetophenone, 2-heptanone, 2-heptanol, oleyl alcohol or 2-ethylhexanol.

[4] = Approximate relative solubility of active ingredients in organic solvents at ambient temperature; remark: listed apart in the source
Procedure: The approximate solubility of Compound A was determined by mixing a known mass of the active ingredient with an increasing mass of each solvent at ambient temperature. […] The solubility of Compound A in the solvents used in this screening procedure was generally classified within the following concentration ranges: […]

[5] = Solubility of a mixture of Compound A and prothioconazole in benzyl acetate/AMD810 blends at 10° C. (HPLC); details: both actives saturated
Procedure: A study of the Compound A and prothioconazole solubility in blends of benzyl acetate/AMD810 was conducted. To each solvent blend both actives were added until each was saturated and the resulting mixtures were then stored at 10° C. until equilibrium was obtained. Aliquots of the supernatant layer were taken from each sample, filtered (0.45 μm mesh) and analyzed by HPLC to determine the solution concentration of each active in the blends.

COc1ccnc(C(=O)N[C@H]2COC(=O)[C@H](Cc3ccccc3)[C@@H](OC(=O)C(C)C)[C@H](C)OC2=O)c1OCOC(=O)C(C)C [Compound A, propanoic acid, 2-methyl-, [[4-methoxy-2-[[[(3S,7R,8R,9S)-9-methyl-8-(2-methyl-1-oxopropoxy)-2,6-dioxo-7-(phenylmethyl)-1,5-dioxonan-3-yl]amino]carbonyl]-3-pyridinyl]oxy]methyl ester]
Relative Solubility of Compound A ([1]; in 2-ethylhexyl benzoate): Very Low (<3.0)
Relative Solubility of Compound A ([1]; in 2-ethylhexyl lactate): Very Low (<3.0)
Relative Solubility of Compound A ([1]; in 2-heptanone): Medium (8.4 to 5.6)
Relative Solubility of Compound A ([1]; in Benzyl alcohol): High (>8.4)
Relative Solubility of Compound A ([1]; in Butyl benzoate): Medium (8.4 to 5.6)
Relative Solubility of Compound A ([1]; in Butyl lactate): Medium (8.4 to 5.6)
Relative Solubility of Compound A ([1]; in Butylene carbonate): Very Low (<3.0)
Relative Solubility of Compound A ([1]; in Di-n-butyl carbonate): Very Low (<3.0)
Relative Solubility of Compound A ([1]; in Diethylene glycol monoethyl ether): Low (5.6 to 3.0)
Relative Solubility of Compound A ([1]; in Ethyl Diglycol Acetate): Low (5.6 to 3.0)
Relative Solubility of Compound A ([1]; in Methyl salicylate): High (>8.4)
Relative Solubility of Compound A ([1]; in N,N dimethyl fatty acid amides): Low (5.6 to 3.0)
Relative Solubility of Compound A ([1]; in N-formyl morpholine and propylene carbonate): High (>8.4)
Relative Solubility of Compound A ([1]; in Polyethylene glycol): Very Low (<3.0)
Relative Solubility of Compound A ([1]; in Polypropylene glycol): Very Low (<3.0)
Relative Solubility of Compound A ([1]; in Propylene carbonate): Very Low (<3.0)
Relative Solubility of Compound A ([1]; in Soybean oil): Very Low (<3.0)
Relative Solubility of Compound A ([1]; in Sulfolane): High (>8.4)
Relative Solubility of Compound A ([1]; in dimethyl esters of adipic, glutaric and succinic acids): Low (5.6 to 3.0)
Compound A Solubility @ 10° C. ([2]; Blend 1: cyclohexanone 0/benzyl acetate 0/AMD810 1 (weight fraction)): 3.3 % w/w
Compound A Solubility @ 10° C. ([2]; Blend 2: cyclohexanone 0/benzyl acetate 0.2/AMD810 0.8 (weight fraction)): 4.3 % w/w
Compound A Solubility @ 10° C. ([2]; Blend 3: cyclohexanone 0.2/benzyl acetate 0/AMD810 0.8 (weight fraction)): 4.5 % w/w
Compound A Solubility @ 10° C. ([2]; Blend 4: cyclohexanone 0.2/benzyl acetate 0.2/AMD810 0.6 (weight fraction)): 6.2 % w/w
Compound A Solubility @ 10° C. ([2]; Blend 5: cyclohexanone 0/benzyl acetate 0.4/AMD810 0.6 (weight fraction)): 6.5 % w/w
Compound A Solubility @ 10° C. ([2]; Blend 6: cyclohexanone 0.2/benzyl acetate 0.4/AMD810 0.4 (weight fraction)): 10.5 % w/w
Compound A Solubility @ 10° C. ([2]; Blend 7: cyclohexanone 0/benzyl acetate 0.6/AMD810 0.4 (weight fraction)): 11 % w/w
Compound A Solubility @ 10° C. ([2]; Blend 8: cyclohexanone 0/benzyl acetate 0.8/AMD810 0.2 (weight fraction)): 12 % w/w
Compound A Solubility @ 10° C. ([2]; Blend 10: cyclohexanone 0.2/benzyl acetate 0.6/AMD810 0.2 (weight fraction)): 13.6 % w/w
Compound A Solubility @ 10° C. ([2]; Blend 11: cyclohexanone 0/benzyl acetate 1/AMD810 0 (weight fraction)): 14.3 % w/w
Compound A Solubility @ 10° C. ([2]; Blend 12: cyclohexanone 0.2/benzyl acetate 0.8/AMD810 0 (weight fraction)): 15.2 % w/w
Compound A after Storage (% retention) ([3]; wt %: Compound A 3.4, AMD 810 96.0): 49^ % retention
Compound A after Storage (% retention) ([3]; wt %: Compound A 4.1, pyraclostrobin 5.2, benzyl acetate 37.0, AMD 810 20.0, cyclohexanone 8.2, emulsifier blend 14.7): 93^2 % retention
Compound A after Storage (% retention) ([3]; wt %: Compound A 4.9, benzyl acetate 94.1): 85^ % retention
Compound A after Storage (% retention) ([3]; wt %: Compound A 4.9, prothioconazole 7.4, benzyl acetate 46.8, AMD 810 25.2, no third solvent, emulsifier blend 14.7): 91^2 % retention
Compound A after Storage (% retention) ([3]; wt %: Compound A 4.9, pyraclostrobin 5.0, benzyl acetate 48.4, AMD 810 26.0, no third solvent, emulsifier blend 14.7): 92^2 % retention
Compound A after Storage (% retention) ([3]; wt %: Compound A 4.9, pyraclostrobin 6.3, benzyl acetate 41.2, AMD 810 22.2, cyclohexanone 9.8): 98^ % retention
Compound A after Storage (% retention) ([3]; wt %: Compound A 4.9, pyraclostrobin 6.3, benzyl acetate 44.4, AMD 810 23.9, 2-ethyl hexanol 4.9, emulsifier blend 14.7): 96^2 % retention
Compound A after Storage (% retention) ([3]; wt %: Compound A 4.9, pyraclostrobin 6.3, benzyl acetate 44.4, AMD 810 23.9, 2-heptanol 4.9, emulsifier blend 14.7): 94^2 % retention
Compound A after Storage (% retention) ([3]; wt %: Compound A 4.9, pyraclostrobin 6.3, benzyl acetate 44.4, AMD 810 23.9, 2-heptanone 4.9, emulsifier blend 14.7): 93^2 % retention
Compound A after Storage (% retention) ([3]; wt %: Compound A 4.9, pyraclostrobin 6.3, benzyl acetate 44.4, AMD 810 23.9, acetophenone 4.9, emulsifier blend 14.7): 94^2 % retention
Compound A after Storage (% retention) ([3]; wt %: Compound A 4.9, pyraclostrobin 6.3, benzyl acetate 44.4, AMD 810 23.9, oleyl alcohol 4.9, emulsifier blend 14.7): 92^2 % retention
Compound A after Storage (% retention) ([3]; wt %: Compound A 5.0, pyraclostrobin 6.4, benzyl acetate 40.9, AMD 810 22.0, 2-ethyl hexanol 10.0): 95^ % retention
Compound A after Storage (% retention) ([3]; wt %: Compound A 7.7, pyraclostrobin 9.8, benzyl acetate 37.1, AMD 810 20.0, cyclohexanone 9.6): 97^ % retention
Compound A after Storage (% retention) ([3]; wt %: Compound A 7.8, pyraclostrobin 9.9, benzyl acetate 36.7, AMD 810 19.8, 2-ethyl hexanol 9.7): 97^ % retention
Compound A after Storage (% retention) ([3]; wt %: Compound A 12.0, cyclohexanone 85.7): 96^ % retention
Compound A content of clear solution ([4]; 0.2 g Compound A mixed with 1.38 g cyclohexanone): 12.6 % w/w
Relative Solubility of Compound A ([4]; in 2-ethylhexanol): Very Low (<3.0)
Relative Solubility of Compound A ([4]; in Alkyl naphthalene mixture): Very Low (<3.0)
Relative Solubility of Compound A ([4]; in Benzyl acetate): High (>8.4)
Relative Solubility of Compound A ([4]; in Cyclohexanone): High (>8.4)
Relative Solubility of Compound A ([4]; in Isoparaffin): Very Low (<3.0)
Relative Solubility of Compound A ([4]; in Isopropyl benzoate): Medium (8.4 to 5.6)
Relative Solubility of Compound A ([4]; in Methyl oleate): Very Low (<3.0)
Relative Solubility of Compound A ([4]; in Methyl-5-(Dimethylamino)-2-Methyl-5-Oxopentanoate): High (>8.4)
Relative Solubility of Compound A ([4]; in Pentanedioic acid, 2-methyl-1, 5-dimethyl ester): Medium (8.4 to 5.6)
Relative Solubility of Compound A ([4]; in Tributoxyethyl phosphate): Low (5.6 to 3.0)
Compound A Solubility at 10° C. ([5]; benzyl acetate 0 wt % in blend with AMD810): 3.3 % w/w
Compound A Solubility at 10° C. ([5]; benzyl acetate 20 wt % in blend with AMD810): 4.3 % w/w
Compound A Solubility at 10° C. ([5]; benzyl acetate 40 wt % in blend with AMD810): 6.5 % w/w
Compound A Solubility at 10° C. ([5]; benzyl acetate 60 wt % in blend with AMD810): 11.0 % w/w
Compound A Solubility at 10° C. ([5]; benzyl acetate 80 wt % in blend with AMD810): 12.0 % w/w
Compound A Solubility at 10° C. ([5]; benzyl acetate 100 wt % in blend with AMD810): 14.3 % w/w
